Source: the supplement of paper PMC10627819

How the values were obtained:
Conditions in all cases: main component drawn
B. subtilis 168 [1] = test: Bliss interaction score (quartile over a dose matrix) (fitness difference); higher = more antagonism (negative = synergy)
Summary of the method: (§1)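 OD595 was read at entry into stationary phase and expressed relative to the robust mean of the no-drug wells on the same plate, capped at 1. The resulting ratio is the fitness value. The Bliss score, observed fitness minus product-based expected fitness with single-drug fitness inferred from combinations, is summarised by quartiles over technical, biological and donor/recipient replicates.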

S. aureus DSM 20231 = test: as above
Summary of the method: as §1

S. pneumoniae D39V [2] = test: as above
Summary of the method: as §1

S. aureus Newman [3] = test: as above
Summary of the method: as §1

B. subtilis 168 [4] = test: fitness (endpoint OD595 vs no drug) (fraction); higher = more growth
Summary of the method: (§2)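 Fitness was defined as the optical density at the transition into stationary phase relative to the robust mean of no-drug control wells. Values were capped at 1. Cultures were started at OD595 0.01 in 384-well plates (30 µl, or 55 µl for S. pneumoniae) in TSB, LB Lennox or CY at 37 °C. OD595 was recorded every 30 min over 14 h, with the first reading subtracted as background.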

S. pneumoniae D39V [5] = test: as above
Summary of the method: as §2

S. aureus Newman [6] = test: as above
Summary of the method: as §2
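For Bliss interaction score (quartile over a dose matrix) in this document: first quartile when negative (synergy) and third quartile when positive (antagonism).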

CO/N=C(\C(=O)N[C@@H]1C(=O)N2C(C(=O)O)=C(COC(C)=O)CS[C@H]12)c1csc(N)n1 [Cefotaxime] + CC(C1CCC(C(O1)OC2C(CC(C(C2O)OC3C(C(C(CO3)(C)O)NC)O)N)N)N)NC [Gentamicin]
Conditions | Bliss interaction score
B. subtilis 168 [1] | -0.0898
S. aureus DSM 20231 | 0.0541
S. aureus Newman [3] | 0.0788
S. pneumoniae D39V [2] | 0.0656

one replicate
Conditions | fitness
B. subtilis 168 [4], first compound 0.00775 µg/mL, partner 0.0625 µg/mL | 0.66
B. subtilis 168 [4], first compound 0.00775 µg/mL, partner 0.125 µg/mL | 0.0541
B. subtilis 168 [4], first compound 0.00775 µg/mL, partner 0.25 µg/mL | 0.0723
B. subtilis 168 [4], first compound 0.0155 µg/mL, partner 0.0625 µg/mL | 0.16
B. subtilis 168 [4], first compound 0.0155 µg/mL, partner 0.125 µg/mL | 0.0431
B. subtilis 168 [4], first compound 0.0155 µg/mL, partner 0.25 µg/mL | 0.0419
B. subtilis 168 [4], first compound 0.031 µg/mL, partner 0.0625 µg/mL | 0.0439
B. subtilis 168 [4], first compound 0.031 µg/mL, partner 0.125 µg/mL | 0.0439
B. subtilis 168 [4], first compound 0.031 µg/mL, partner 0.25 µg/mL | 0.0452
B. subtilis 168 [4], first compound 0.0625 µg/mL, partner 0.0625 µg/mL | 0.754
B. subtilis 168 [4], first compound 0.0625 µg/mL, partner 0.125 µg/mL | 0.701
B. subtilis 168 [4], first compound 0.0625 µg/mL, partner 0.25 µg/mL | 0.155
B. subtilis 168 [4], first compound 0.125 µg/mL, partner 0.0625 µg/mL | 0.65
B. subtilis 168 [4], first compound 0.125 µg/mL, partner 0.125 µg/mL | 0.449
B. subtilis 168 [4], first compound 0.125 µg/mL, partner 0.25 µg/mL | 0.103
B. subtilis 168 [4], first compound 0.25 µg/mL, partner 0.0625 µg/mL | 0.581
B. subtilis 168 [4], first compound 0.25 µg/mL, partner 0.125 µg/mL | 0.22
B. subtilis 168 [4], first compound 0.25 µg/mL, partner 0.25 µg/mL | 0.129
S. aureus Newman [6], first compound 0.039 µg/mL, partner 0.5 µg/mL | 0.79
S. aureus Newman [6], first compound 0.039 µg/mL, partner 1 µg/mL | 0.857
S. aureus Newman [6], first compound 0.039 µg/mL, partner 2 µg/mL | 0.951
S. aureus Newman [6], first compound 0.078 µg/mL, partner 0.375 µg/mL | 0.757
S. aureus Newman [6], first compound 0.078 µg/mL, partner 0.5 µg/mL | 0.821
S. aureus Newman [6], first compound 0.078 µg/mL, partner 0.75 µg/mL | 0.772
S. aureus Newman [6], first compound 0.078 µg/mL, partner 1 µg/mL | 0.8
S. aureus Newman [6], first compound 0.078 µg/mL, partner 1.5 µg/mL | 0.759
S. aureus Newman [6], first compound 0.078 µg/mL, partner 2 µg/mL | 0.977
S. aureus Newman [6], first compound 0.156 µg/mL, partner 0.375 µg/mL | 0.52
S. aureus Newman [6], first compound 0.156 µg/mL, partner 0.5 µg/mL | 0.744
S. aureus Newman [6], first compound 0.156 µg/mL, partner 0.75 µg/mL | 0.533
S. aureus Newman [6], first compound 0.156 µg/mL, partner 1 µg/mL | 0.763
S. aureus Newman [6], first compound 0.156 µg/mL, partner 1.5 µg/mL | 0.595
S. aureus Newman [6], first compound 0.156 µg/mL, partner 2 µg/mL | 0.872
S. aureus Newman [6], first compound 0.312 µg/mL, partner 0.375 µg/mL | 0.345
S. aureus Newman [6], first compound 0.312 µg/mL, partner 0.75 µg/mL | 0.389
S. aureus Newman [6], first compound 0.312 µg/mL, partner 1.5 µg/mL | 0.399
S. aureus Newman [6], first compound 0.625 µg/mL, partner 0.375 µg/mL | 0.0576
S. aureus Newman [6], first compound 0.625 µg/mL, partner 0.75 µg/mL | 0.0523
S. aureus Newman [6], first compound 0.625 µg/mL, partner 1.5 µg/mL | 0.0345
S. aureus Newman [6], first compound 1.25 µg/mL, partner 0.375 µg/mL | 0.0504
S. aureus Newman [6], first compound 1.25 µg/mL, partner 0.75 µg/mL | 0.0617
S. aureus Newman [6], first compound 1.25 µg/mL, partner 1.5 µg/mL | 0.0569
S. aureus Newman [6], first compound 2.5 µg/mL, partner 0.375 µg/mL | 0.0422
S. aureus Newman [6], first compound 2.5 µg/mL, partner 0.75 µg/mL | 0.074
S. aureus Newman [6], first compound 2.5 µg/mL, partner 1.5 µg/mL | 0.0764

Conditions | fitness
B. subtilis 168 [4], first compound 0.5 µg/mL, partner 0.0625 µg/mL | 0.155
B. subtilis 168 [4], first compound 0.5 µg/mL, partner 0.125 µg/mL | 0.055
B. subtilis 168 [4], first compound 0.5 µg/mL, partner 0.25 µg/mL | 0.0842
B. subtilis 168 [4], first compound 1 µg/mL, partner 0.0625 µg/mL | 0.0509
B. subtilis 168 [4], first compound 1 µg/mL, partner 0.125 µg/mL | 0.04
B. subtilis 168 [4], first compound 1 µg/mL, partner 0.25 µg/mL | 0.0527
B. subtilis 168 [4], first compound 2 µg/mL, partner 0.0625 µg/mL | 0.0909
B. subtilis 168 [4], first compound 2 µg/mL, partner 0.125 µg/mL | 0.0759
B. subtilis 168 [4], first compound 2 µg/mL, partner 0.25 µg/mL | 0.0872
S. aureus Newman [6], first compound 0.625 µg/mL, partner 0.5 µg/mL | 0.389
S. aureus Newman [6], first compound 0.625 µg/mL, partner 1 µg/mL | 0.44
S. aureus Newman [6], first compound 0.625 µg/mL, partner 2 µg/mL | 0.397
S. aureus Newman [6], first compound 1.25 µg/mL, partner 0.5 µg/mL | 0.0594
S. aureus Newman [6], first compound 1.25 µg/mL, partner 1 µg/mL | 0.0679
S. aureus Newman [6], first compound 1.25 µg/mL, partner 2 µg/mL | 0.0372
S. aureus Newman [6], first compound 2.5 µg/mL, partner 0.5 µg/mL | 0.0199
S. aureus Newman [6], first compound 2.5 µg/mL, partner 1 µg/mL | 0.0366
S. aureus Newman [6], first compound 2.5 µg/mL, partner 2 µg/mL | 0.0507
S. pneumoniae D39V [5], first compound 0.0018 µg/mL, partner 2 µg/mL | 0.999
S. pneumoniae D39V [5], first compound 0.0018 µg/mL, partner 4 µg/mL | 0.988
S. pneumoniae D39V [5], first compound 0.0018 µg/mL, partner 8 µg/mL | 0.971
S. pneumoniae D39V [5], first compound 0.0035 µg/mL, partner 2 µg/mL | 0.967
S. pneumoniae D39V [5], first compound 0.0035 µg/mL, partner 4 µg/mL | 0.956
S. pneumoniae D39V [5], first compound 0.0035 µg/mL, partner 8 µg/mL | 0.917
S. pneumoniae D39V [5], first compound 0.007 µg/mL, partner 2 µg/mL | 0.895
S. pneumoniae D39V [5], first compound 0.007 µg/mL, partner 4 µg/mL | 0.896
S. pneumoniae D39V [5], first compound 0.007 µg/mL, partner 8 µg/mL | 0.867
